Common to all, as to assay type: cell-based
One assay deals with A2780tax cell line. In words: Cell viability by ATP dosage (ATPlite), 72 h continuous exposure, A2780tax. The note with it: A2780tax cells, continuous exposure 72 hours, viable cells by ATP dosage. Here is the method:
(§1) Pharmacological experimentation was carried out on the compounds of the invention at a 0.1% concentration in dimethylsulfoxide. A2780wt, A2780cis, A2780adr and A2780tax cell lines were used. Cells were plated on 96 well flat bottom plates (Viewplates, Packard). After 24-hours, the culture medium was replaced and, after washing, media containing the tested compounds were added. A dose-response logarithmic curve was established in quadruplicate for each plate, starting from […]. Each assay was effected in duplicate three times. After 72 hour-culture in the presence of the tested compounds, the cells were collected and the number of viable cells was evaluated by ATP dosage, using the ATPlite kit (Packard, Meridien, Mo., USA) and the Topcount (Packard) automated luminometer. For each drug/cell line, the dose-response curve was plotted and the IC50 values were calculated from the concentration-effect curve obtained in three tests with the sigmoid-Emax model using non-linear regression, weighted by the reciprocal of the square of the predicted effect.
A general note: ATP-based viability assays read luminescence as a measure of living cells.

The next assay concerns A2780adr cell line. Briefly: Cell viability by ATP dosage (ATPlite), 72 h continuous exposure, A2780adr. The note with it: A2780adr cells, continuous exposure 72 hours, viable cells by ATP dosage. Here is the method:
as §1

In another assay the test system is A2780wt cell line. In words: Cell viability by ATP dosage (ATPlite), 72 h continuous exposure, A2780wt. The following applies: A2780wt cells, continuous exposure 72 hours, viable cells by ATP dosage. Here is the method: as §1
Another assay has as its system A2780cis cell line. Briefly: Cell viability by ATP dosage (ATPlite), 72 h continuous exposure, A2780cis. The following applies: A2780cis cells, continuous exposure 72 hours, viable cells by ATP dosage. Here is the method:
as §1

As for `CC(=O)OC1C(=O)C2(C)C(O)CC3OCC3(OC(C)=O)C2C(OC(=O)c2ccccc2)C2(O)CC(OC(=O)C(C)(O)C(NC(=O)c3ccccc3)c3ccco3)C(C)=C1C2(C)C` (stereo not drawn) [Es. 1, (2′R,3′R)-3′-dephenyl-3′-(2-furyl)-2′-methyl-paclitaxel], the IC50 in the assay on A2780tax cell line worked out at 0.42 ± 0.093 µM; in the assay on A2780adr cell line, 0.0614 ± 0.0039 µM; with A2780wt cell line it was 0.0031 ± 0.0002 µM; in the assay on A2780cis cell line it was 0.0029 ± 0.0001 µM.
For `CC(=O)O[C@H]1C(=O)[C@@]2(C)[C@H]([C@H](OC(=O)c3ccccc3)[C@]34OC(=O)O[C@H]3[C@H](OC(=O)[C@](C)(O)[C@@H](NC(=O)OC(C)(C)C)c3ccccc3)C(C)=C1C4(C)C)[C@]1(OC(C)=O)CO[C@@H]1C[C@@H]2O` [Es. 2, (2′R,3′S)-13-(N-Boc-2-methyl-3-phenylisoserinoyl)-14β-hydroxybaccatin III 1,14-carbonate], the IC50 worked out at 0.299 ± 0.077 µM in the assay on A2780tax cell line, 0.0529 ± 0.0162 µM in the assay on A2780adr cell line, 0.00253 ± 0.00147 µM in the assay with A2780wt cell line and 0.0017 ± 0.0004 µM in the assay with A2780cis cell line.
For `CC(=O)O[C@H]1C(=O)[C@@]2(C)[C@H]([C@H](OC(=O)c3ccccc3)[C@]3(O)C[C@H](OC(=O)[C@](C)(O)[C@@H](NC(=O)OC(C)(C)C)c4ccco4)C(C)=C1C3(C)C)[C@]1(OC(C)=O)CO[C@@H]1C[C@@H]2O` [Es. 3, (2′R,3′R)-13-[N-Boc-2-methyl-3-(2-furanyl)-isoserinoyl]-baccatin III], the IC50 was 0.312 ± 0.061 µM with A2780tax cell line, 0.0413 ± 0.0074 µM with A2780adr cell line, 0.0029 ± 0.0001 µM in the assay on A2780wt cell line and 0.0033 ± 0.0002 µM in the assay on A2780cis cell line.
Take `CC(=O)O[C@H]1C(=O)[C@@]2(C)[C@H]([C@H](OC(=O)c3ccccc3)[C@]34OC(=O)O[C@H]3[C@H](OC(=O)[C@](C)(O)[C@@H](NC(=O)OC(C)(C)C)c3ccco3)C(C)=C1C4(C)C)[C@]1(OC(C)=O)CO[C@@H]1C[C@@H]2O` [Es. 4, (2′R,3′R)-13-[N-Boc-2-methyl-3-(2-furanyl)isoserinoyl]-14β-hydroxybaccatin III 1,14-carbonate]: the IC50 came to 0.0309 ± 0.0037 µM with A2780tax cell line, 0.0271 ± 0.0101 µM in the assay with A2780adr cell line, 0.0059 ± 0.0007 µM with A2780wt cell line and 0.0025 ± 0.0003 µM in the assay with A2780cis cell line.
The like results for `CC(=O)O[C@H]1C(=O)[C@@]2(C)[C@H]([C@H](OC(=O)c3ccccc3)[C@]34OC(=O)O[C@H]3[C@H](OC(=O)[C@](C)(O)[C@@H](NC(=O)OC(C)(C)C)C(F)(F)F)C(C)=C1C4(C)C)[C@]1(OC(C)=O)CO[C@@H]1C[C@@H]2O` [Es. 5, (2′R,3′R)-13-[N-Boc-2-methyl-3-trifluoromethylisoserinoyl]-14β-hydroxybaccatin III 1,14-carbonate] were, in that order, 0.285 ± 0.06 µM, 0.0793 ± 0.0199 µM, 0.00464 ± 0.00258 µM and 0.0028 ± 0.0006 µM.
For “(2′R,3′R)-13-[N-Boc-2-methyl-3-(2-thienyl)isoserinoyl]-14β-hydroxybaccatin III 1,14-carbonate [Es. 6]”, the IC50 in the assay with A2780tax cell line amounted to 0.16 ± 0.032 µM; with A2780adr cell line, 0.0932 ± 0.0204 µM; in the assay with A2780wt cell line, 0.0037 ± 0.0004 µM; in the assay with A2780cis cell line it was 0.0029 ± 0.0002 µM.

Broadly, the IC50 is the concentration at which inhibition is half-maximal. A high value points to weaker potency.

These data come from US7153884B2, “C-2′ methylated derivatives of paclitaxel for use as antitumour agents” (Indena S.p.A., priority 2001, dated 2006).
